Source: publication PMC6629894, “Ruthenium Complexes Containing Heterocyclic Thioamidates Trigger Caspase-Mediated Apoptosis Through MAPK Signaling in Human Hepatocellular Carcinoma Cells” (Frontiers in Oncology, 2019)
Entries after “also recorded” stand apart in the source; their conditions may differ. Where two headings read alike, the source gives them in different places.

Experiments:
HepG2 cells = assay: Trypan blue exclusion assay; assay type: cell-based, human
Description: For all subsequent in vitro experiments, 2 mL of a suspension of HepG2 cells were seeded (7 × 10^4 cells/mL) and incubated in a 24-well plate overnight to allow the cells to adhere to the plate surface.
In the trypan blue exclusion assay, the number of viable cells and non-viable cells (stained with trypan blue) were counted. Briefly, 90 μL was removed from the cell suspension, and 10 μL of trypan blue (0.4%) was added. Cell counting was performed using a light microscope with a hemocytometer filled with an aliquot of the homogenized cell suspension.

[1] = system: WT SV40 MEF (wild-type immortalized mouse embryonic fibroblast); assay: Alamar blue cytotoxicity assay, 72 h; assay type: cell-based; conditions: read-out: IC50 and 95% CI
[2] = system: multicellular spheroids formed from HepG2 cells; assay: 3D multicellular spheroid culture, Alamar blue, 72 h; assay type: cell-based, human; conditions: read-out: IC50 and 95% CI, 3D HepG2 spheroids
Description: HepG2 cells were cultivated as 3D multicellular spheroids in a 96-well plate with a cell-repellent surface. Briefly, 100 μL of a suspension of cells (5 × 10^5 cells/mL) was seeded into a 96-well plate with a cell-repellent surface (Greiner Bio-One, Kremsmünster, Austria) and cultured in RPMI 1640 medium with 10% fetal bovine serum, 2 mM glutamine plus 3% Matrigel (BD Biosciences, San Jose, CA, EUA) and 50 μg/mL gentamycin at 37°C with 5% CO2. Spheroids with stable structures formed after 3 days. Then, the complexes were dissolved in 0.5% DMSO at eight different concentrations from 0.19 to 25 μg/mL, were added to each well and incubated for 72 h. […] At the end of the experiment, morphological changes were examined by light microscopy (Olympus BX41, Tokyo, Japan) using Image-Pro software (Media Cybernetics, Inc. Silver Spring, USA), and cytotoxicity was quantified with the Alamar blue method as described above.

[3] = system: BAD KO SV40 MEF (BAD gene knockout immortalized mouse embryonic fibroblasts); assay: Alamar blue cytotoxicity assay, 72 h; assay type: cell-based; conditions: read-out: IC50 and 95% CI
[4] = for Differential leukocytes: Eosinophils / Differential leukocytes: Lymphocytes / Differential leukocytes: Monocytes / Differential leukocytes: Neutrophils / Erythrocytes / Total leukocytes: peripheral blood
Description: A human hepatocellular carcinoma xenograft model was generated by subcutaneously implanting HepG2 cells (1 × 10^7 cells per 500 μL) into the left front armpit of C.B-17 SCID mice. […] The treatments were initiated one day after the cancer cell injection. The animals were treated intraperitoneally (200 μL per animal) once a day for 21 consecutive days. On the 22nd day, the animals were anesthetized, and peripheral blood samples were collected from the brachial artery. Animals were euthanized by an anesthetic overdose, and tumors were excised and weighed.
To evaluate the toxicological aspects, mice were weighed at the beginning and at the end of the experiment. […] Hematological analysis was performed using an Advia 60 hematology system (Bayer, Leverkusen, Germany).

[5] = system: HepG2 (human hepatocellular carcinoma); assay: Alamar blue cytotoxicity assay, 72 h; assay type: cell-based
Description: (§1) The cell lines HepG2 (human hepatocellular carcinoma), HL-60 (human promyelocytic leukemia), K-562 (human chronic myelogenous leukemia), B16-F10 (mouse melanoma), MCF-7 (human breast carcinoma), HCT116 (human colon carcinoma), HSC-3 (human oral squamous cell carcinoma), SCC-4 (human oral squamous cell carcinoma), MRC-5 (human lung fibroblast), WT SV40 MEF (wild-type immortalized mouse embryonic fibroblast), and BAD KO SV40 MEF (BAD gene knockout immortalized mouse embryonic fibroblasts) were obtained from the American Type Culture Collection (ATCC, Manassas, VA, USA). Cells were cultured in RPMI 1640 medium (Gibco-BRL, Gaithersburg, MD, USA) with 10% fetal bovine serum (Life, Carlsbad, CA, USA), 2 mM L-glutamine (Vetec Química Fina, Duque de Caxias, RJ, Brazil) and 50 μg/mL gentamycin (Life). For all experiments, adherent cells were collected by treatment with 0.25% trypsin-EDTA solution (Gibco-BRL). All cell lines were cultured in flasks at 37°C in 5% CO2 and were subcultured every 3–4 days to maintain exponential growth. All cell lines were tested for mycoplasma using a mycoplasma staining kit (Sigma-Aldrich Co.) to validate that the cells that were used were free from contamination.
(§2) Cytotoxicity was measured colorimetrically using an Alamar blue method that was performed as previously described ([20], [21]). Cells were seeded in 96-well plates for all experiments (7 × 10^4 cells/mL for adherent cells or 3 × 10^5 cells/mL for suspension cells in 100 μL of medium) and incubated overnight at 37°C with 5% CO2 to allow for adherence. The complexes were dissolved in 0.5% dimethyl sulfoxide (DMSO, Vetec Química Fina) at eight different concentrations from 0.19 to 25 μg/mL and were added to each well and incubated for 72 h. The negative control was treated with the vehicle (0.5% DMSO) that was used to solubilize and dilute the complexes. […] Four (for cell lines) or 24 h (for PBMCs) before the end of incubation, 20 μL of a stock solution (0.312 mg/mL) of resazurin (Sigma-Aldrich Co.) was added to each well. Absorbance was measured at 570 and 600 nm using a SpectraMax 190 Microplate Reader (Molecular Devices, Sunnyvale, CA, USA).

[6] = system: K-562 (human chronic myelogenous leukemia); assay: Alamar blue cytotoxicity assay, 72 h; assay type: cell-based; conditions: for IC50: read-out: IC50 and 95% CI, K-562, 72 h
Description: as §1, §2

B16-F10 (mouse melanoma) = assay: Alamar blue cytotoxicity assay, 72 h; assay type: cell-based
Description: as §1, §2

calf thymus DNA (ctDNA) = assay: DNA interaction assay (ethidium bromide displacement); assay type: binding
Description: DNA interaction was measured in a cell-free system as previously described ([22]). In this assay, the ability of the complexes to translocate ethidium bromide, a DNA intercalator, from calf thymus DNA (ctDNA, Sigma-Aldrich Co.) was examined. […] […] After a 15 min incubation at room temperature, fluorescence was measured using the excitation and emission wavelengths of 320 and 600 nm, respectively, using a Spectramax Microplate Reader (Molecular Devices).

F[P-](F)(F)(F)(F)F.[Ru+2].[S-]C1=NCCS1.c1ccc(-c2ccccn2)nc1.c1ccc(P(CCCCP(c2ccccc2)c2ccccc2)c2ccccc2)cc1 [Complex 2, [Ru(tzdt)(bipy)(dppb)]PF6]
reduction of the number of viable cells vs negative control (HepG2 cells; 2 μM, 24 h): 42.1% | reduction of the number of viable cells vs negative control (HepG2 cells; 2 μM, 48 h): 67.3% | reduction of the number of viable cells vs negative control (HepG2 cells; 4 μM, 24 h): 58.6% | reduction of the number of viable cells vs negative control (HepG2 cells; 4 μM, 48 h): 93.1% | IC50 [1]: 2 µM | IC50 [2]: 7.3 µM | IC50 [3]: 2.9 µM | Initial body weight ([4]; 0.5 mg/kg/day): 20.4 ± 0.4 g | Final body weight ([4]; 0.5 mg/kg/day i.p., 21 days): 20.8 ± 0.4 g | Heart relative weight ([4]; 0.5 mg/kg/day i.p., 21 days): 0.6 ± 0.1 g/100 g body weight | Kidney relative weight ([4]; 0.5 mg/kg/day i.p., 21 days): 1.5 ± 0.1 g/100 g body weight | Liver relative weight ([4]; 0.5 mg/kg/day i.p., 21 days): 4.7 ± 0.2 g/100 g body weight | Lung relative weight ([4]; 0.5 mg/kg/day i.p., 21 days): 0.8 ± 0.1 g/100 g body weight | Survival ([4]; 0.5 mg/kg/day i.p., 21 days): 10/10 | Initial body weight ([4]; 1 mg/kg/day): 19.9 ± 0.5 g | Final body weight ([4]; 1 mg/kg/day i.p., 21 days): 19.4 ± 0.5 g | Heart relative weight ([4]; 1 mg/kg/day i.p., 21 days): 0.6 ± 0.1 g/100 g body weight | Kidney relative weight ([4]; 1 mg/kg/day i.p., 21 days): 1.5 ± 0.1 g/100 g body weight | Liver relative weight ([4]; 1 mg/kg/day i.p., 21 days): 4.6 ± 0.1 g/100 g body weight | Lung relative weight ([4]; 1 mg/kg/day i.p., 21 days): 0.8 ± 0.1 g/100 g body weight | Survival ([4]; 1 mg/kg/day i.p., 21 days): 10/10 | hepatotoxicity: focal areas of coagulation necrosis in the liver (histology) ([4]; 0.5 and 1 mg/kg/day i.p., 21 days): more evident; also recorded: evidence of hepatotoxicity | Differential leukocytes: Eosinophils ([4]; 0.5 mg/kg/day, 21 days): 1.3% | Differential leukocytes: Lymphocytes ([4]; 0.5 mg/kg/day, 21 days): 39.9% | Differential leukocytes: Monocytes ([4]; 0.5 mg/kg/day, 21 days): 39.1% | Differential leukocytes: Neutrophils ([4]; 0.5 mg/kg/day, 21 days): 21.1% | Erythrocytes ([4]; 0.5 mg/kg/day, 21 days): 8.5 ± 1.0 10^6cells/μL | Total leukocytes ([4]; 0.5 mg/kg/day, 21 days): 2.5 ± 0.4 10^3cells/μL | Differential leukocytes: Eosinophils ([4]; 1 mg/kg/day, 21 days): 1.1% | Differential leukocytes: Lymphocytes ([4]; 1 mg/kg/day, 21 days): 32.2% | Differential leukocytes: Monocytes ([4]; 1 mg/kg/day, 21 days): 32.5% | Differential leukocytes: Neutrophils ([4]; 1 mg/kg/day, 21 days): 34.4% | Erythrocytes ([4]; 1 mg/kg/day, 21 days): 7.8 ± 0.8 10^6cells/μL | Total leukocytes ([4]; 1 mg/kg/day, 21 days): 2.7 ± 0.4 10^3cells/μL | Selectivity index (SI = IC50 [noncancerous cells]/IC50 [cancer cells]) ([5]; MRC-5 vs HepG2): 0.8 | Selectivity index (SI = IC50 [noncancerous cells]/IC50 [cancer cells]) ([5]; PBMCs vs HepG2): 1.4 | Selectivity index (SI = IC50 [noncancerous cells]/IC50 [cancer cells]) ([6]; MRC-5 vs K-562): 1.8 | Selectivity index (SI = IC50 [noncancerous cells]/IC50 [cancer cells]) ([6]; PBMCs vs K-562): 2.9 | IC50 [6]: 0.9 µM | Selectivity index (SI = IC50 [noncancerous cells]/IC50 [cancer cells]) (B16-F10 (mouse melanoma); MRC-5 vs B16-F10): 1.2 | Selectivity index (SI = IC50 [noncancerous cells]/IC50 [cancer cells]) (B16-F10 (mouse melanoma); PBMCs vs B16-F10): 2.0 | reduction of the fluorescence intensity (ethidium bromide-ctDNA) vs negative control (calf thymus DNA (ctDNA); 5 μM): 36.9% | reduction of the fluorescence intensity (ethidium bromide-ctDNA) vs negative control (calf thymus DNA (ctDNA); 10 μM): 42.9% | reduction of the fluorescence intensity (ethidium bromide-ctDNA) vs negative control (calf thymus DNA (ctDNA); 20 μM): 45.4%

Cn1ccnc1[S-].F[P-](F)(F)(F)(F)F.[Ru+2].c1ccc(-c2ccccn2)nc1.c1ccc(P(CCCCP(c2ccccc2)c2ccccc2)c2ccccc2)cc1 [Complex 1, [Ru(mmi)(bipy)(dppb)]PF6]
reduction of the number of viable cells vs negative control (HepG2 cells; 5 μM, 24 h): 40.1% | reduction of the number of viable cells vs negative control (HepG2 cells; 5 μM, 48 h): 80.9% | reduction of the number of viable cells vs negative control (HepG2 cells; 10 μM, 24 h): 78.9% | reduction of the number of viable cells vs negative control (HepG2 cells; 10 μM, 48 h): 93.9% | IC50 [1]: 1.1 µM | IC50 [2]: 6.5 µM | IC50 [3]: 0.7 µM | Initial body weight ([4]; 0.5 mg/kg/day): 21.7 ± 0.2 g | Final body weight ([4]; 0.5 mg/kg/day i.p., 21 days): 20.4 ± 0.3 g | Survival ([4]; 0.5 mg/kg/day i.p., 21 days): 10/10 | Initial body weight ([4]; 1 mg/kg/day): 20.3 ± 0.2 g | Final body weight ([4]; 1 mg/kg/day i.p., 21 days): 20.9 ± 0.4 g | Survival ([4]; 1 mg/kg/day i.p., 21 days): 10/10 | Differential leukocytes: Eosinophils ([4]; 0.5 mg/kg/day, 21 days): 0.7% | Differential leukocytes: Lymphocytes ([4]; 0.5 mg/kg/day, 21 days): 36.4% | Differential leukocytes: Monocytes ([4]; 0.5 mg/kg/day, 21 days): 39.9% | Differential leukocytes: Neutrophils ([4]; 0.5 mg/kg/day, 21 days): 23.8% | Erythrocytes ([4]; 0.5 mg/kg/day, 21 days): 10.5 ± 0.6 10^6cells/μL | Total leukocytes ([4]; 0.5 mg/kg/day, 21 days): 2.3 ± 0.4 10^3cells/μL | Differential leukocytes: Eosinophils ([4]; 1 mg/kg/day, 21 days): 1.4% | Differential leukocytes: Lymphocytes ([4]; 1 mg/kg/day, 21 days): 55.5% | Differential leukocytes: Monocytes ([4]; 1 mg/kg/day, 21 days): 20.1% | Differential leukocytes: Neutrophils ([4]; 1 mg/kg/day, 21 days): 24.4% | Erythrocytes ([4]; 1 mg/kg/day, 21 days): 6.7 ± 0.9 10^6cells/μL | Total leukocytes ([4]; 1 mg/kg/day, 21 days): 3.9 ± 1.9 10^3cells/μL | IC50 ([5]; read-out: IC50 and 95% CI, HepG2, 72 h): 2.6 µM | Selectivity index (SI = IC50 [noncancerous cells]/IC50 [cancer cells]) ([6]; PBMCs vs K-562): 1.9 | IC50 [6]: 1.4 µM | Selectivity index (SI = IC50 [noncancerous cells]/IC50 [cancer cells]) (B16-F10 (mouse melanoma); MRC-5 vs B16-F10): 1.3 | Selectivity index (SI = IC50 [noncancerous cells]/IC50 [cancer cells]) (B16-F10 (mouse melanoma); PBMCs vs B16-F10): 1.5 | reduction of the fluorescence intensity (ethidium bromide-ctDNA) vs negative control (calf thymus DNA (ctDNA); 5 μM): 41.6% | reduction of the fluorescence intensity (ethidium bromide-ctDNA) vs negative control (calf thymus DNA (ctDNA); 10 μM): 34.0% | reduction of the fluorescence intensity (ethidium bromide-ctDNA) vs negative control (calf thymus DNA (ctDNA); 20 μM): 30.4%
